Tests used:
human TRPA1 = human TRPA1 (Homo sapiens (Human), UniProt O75762); assay: In vitro inhibition of human TRPA1, whole cell patch configuration; format: cell-based; settings: current activation 10 μM AITC, tested concentrations 320 pM to 3.2 μM, read-out: hTRPA1 IC50
In short: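 Whole-cell patch clamp, bath 150 mM NaCl, 10 mM HEPES, 1 mM EGTA, 3 mM MgCl2, pH 7.4 (sometimes 2 mM CaCl2, 1 mM MgCl2). Currents recorded continuously at −60 mV or by 400 ms ramps from −40 mV holding every 4 s; inward/outward currents taken at −80/80 mV, with controlled-temperature focal perfusion.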

[1] = test system: formalin-induced pain behaviors in the rat; assay: Formalin-induced pain test (formalin model), duration of pain behaviors; format: in vivo
Procedure: Exemplary compounds of the invention were tested in the formalin-induced pain test reported by Dubuisson et al., Pain 1977 December; 4(2):161-74 (incorporated herein by reference in its entirety). Briefly, dilute formalin (50 μL of 3% formalin) was injected into the plantar surface of the hind paw of a rat. […] The individual responsible for counting the pain behaviors in a particular study was blinded to the treatment groups.
The initial phase (Phase I: 0-5 min) is thought to have a significant component that is dependent upon direct activation of afferent fibers by formalin and functional TRPA1 (McNamara et al., 2007).
Investigators studied oral administration of compounds of the invention at the doses presented in Table 3 on pain behaviors in the formalin model in the rat. Compounds were formulated as solutions in water with various solvents and excipients including dimethyl sulfoxide (DMSO), polyethylene glycol (15)-hydroxystearate (Solutol®, Sigma-Aldrich), caprylocaproyl macrogol-8 glyceride (Labrasol®, Sigma-Aldrich), polysorbate-80 (Tween®-80, Sigma-Aldrich), and polyoxyl 35 castor oil (Cremophor® EL, BASF Corp.); or suspensions in methylcellulose as indicated in Table 3. Animals were dosed orally with the vehicle, or compounds of the invention one hour prior to intraplantar formalin. […] A decrease over Vehicle indicates a positive result. P values, when indicated, indicate significance compared Vehicle.

[2] = 1 mg/kg PO one hour prior to formalin, solution in 4% DMSO, 5% Tween-80, 20% Cremophor EL, 71% water
[3] = 3 mg/kg PO one hour prior to formalin, solution in 4% DMSO, 5% Tween-80, 20% Cremophor EL, 71% water
[4] = 10 mg/kg PO one hour prior to formalin, solution in 4% DMSO, 5% Tween-80, 20% Cremophor EL, 71% water
[5] = 30 mg/kg PO one hour prior to formalin, solution in 8% DMSO and 92% Labrasol
[6] = 30 mg/kg PO one hour prior to formalin, solution in 4% DMSO, 5% Tween-80, 20% Cremophor EL, 71% water
[7] = 1 mpk PO one hour prior to formalin, solution in 4% DMSO, 10% Solutol, 86% water
[8] = 3 mpk PO one hour prior to formalin, solution in 4% DMSO, 10% Solutol, 86% water
[9] = 10 mpk PO one hour prior to formalin, solution in 4% DMSO, 10% Solutol, 86% water

Sequence of human TRPA1 (O75762 whole entry, the tested form may be a part): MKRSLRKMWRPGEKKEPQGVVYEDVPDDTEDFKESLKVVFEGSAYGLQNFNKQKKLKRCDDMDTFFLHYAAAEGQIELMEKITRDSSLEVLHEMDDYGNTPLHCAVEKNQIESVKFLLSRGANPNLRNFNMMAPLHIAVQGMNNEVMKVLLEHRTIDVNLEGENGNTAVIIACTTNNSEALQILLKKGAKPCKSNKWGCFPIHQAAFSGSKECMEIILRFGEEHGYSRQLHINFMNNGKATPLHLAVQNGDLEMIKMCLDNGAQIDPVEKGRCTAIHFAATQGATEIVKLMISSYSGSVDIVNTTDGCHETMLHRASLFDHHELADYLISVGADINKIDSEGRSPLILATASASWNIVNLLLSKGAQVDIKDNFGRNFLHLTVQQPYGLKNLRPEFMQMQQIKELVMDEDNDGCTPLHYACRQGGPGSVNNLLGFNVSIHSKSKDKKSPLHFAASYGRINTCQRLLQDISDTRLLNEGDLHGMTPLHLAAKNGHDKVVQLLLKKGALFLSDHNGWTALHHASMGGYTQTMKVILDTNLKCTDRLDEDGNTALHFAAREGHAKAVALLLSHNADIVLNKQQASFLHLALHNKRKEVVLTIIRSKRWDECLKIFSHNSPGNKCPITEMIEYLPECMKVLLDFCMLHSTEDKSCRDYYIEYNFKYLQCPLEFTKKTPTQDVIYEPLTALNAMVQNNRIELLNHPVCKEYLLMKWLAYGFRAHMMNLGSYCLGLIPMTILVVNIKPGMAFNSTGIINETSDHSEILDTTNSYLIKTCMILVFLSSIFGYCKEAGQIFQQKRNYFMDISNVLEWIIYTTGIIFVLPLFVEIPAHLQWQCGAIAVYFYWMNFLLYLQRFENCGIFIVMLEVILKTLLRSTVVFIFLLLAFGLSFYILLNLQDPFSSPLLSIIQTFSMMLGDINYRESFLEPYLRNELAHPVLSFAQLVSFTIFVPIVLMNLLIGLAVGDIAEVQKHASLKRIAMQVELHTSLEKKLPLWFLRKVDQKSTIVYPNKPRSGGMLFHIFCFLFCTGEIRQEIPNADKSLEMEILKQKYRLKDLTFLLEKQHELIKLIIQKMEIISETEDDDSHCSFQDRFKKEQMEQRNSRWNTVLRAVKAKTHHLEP

Cc1nc(Cn2c(=O)c3c(ncn3[C@@H](C)C(=O)Nc3ccnc(-c4cnc(C)c(C(F)(F)F)c4)n3)n(C)c2=O)no1 [Compound 172, (S)-2-(3-methyl-1-((5-methyl-1,2,4-oxadiazol-3-yl)methyl)-2,6-dioxo-2,3-dihydro-1H-purin-7(6H)-yl)-N-(2-(6-methyl-5-(trifluoromethyl)pyridin-3-yl)pyrimidin-4-yl)propanamide]
IC50 (human TRPA1): 2 nM
Duration (0-2 Minutes) Average [1, 2]: 88.6 s
Duration (0-5 Minutes) Average [1, 2]: 151.0 s
Duration (0-2 Minutes) Average [1, 3]: 91.1 s
Duration (0-5 Minutes) Average [1, 3]: 149.0 s
Duration (0-2 Minutes) Average [1, 4]: 83.1 s
Duration (0-5 Minutes) Average [1, 4]: 151.6 s

Cc1cc(Cn2c(=O)c3c(ncn3[C@@H](C)C(=O)Nc3cccc(-c4cnc(C(F)(F)F)nc4)n3)n(C)c2=O)no1 [Compound 15, (S)-2-(3-methyl-1-((5-methylisoxazol-3-yl)methyl)-2,6-dioxo-2,3-dihydro-1H-purin-7(6H)-yl)-N-(6-(2-(trifluoromethyl)pyrimidin-5-yl)pyridin-2-yl)propanamide]
Duration (0-2 Minutes) Average [1, 5]: 76.00 s
Duration (0-5 Minutes) Average [1, 5]: 190.20 s

C[C@@H](C(=O)Nc1ccnc(-c2cnc(N3CC4CC4C3)nc2)n1)n1cnc2c1c(=O)n(CC#N)c(=O)n2C (stereo partly drawn) [Compound 155, (2S)—N-(2′-(3-azabicyclo[3.1.0]hexan-3-yl)-2,5′-bipyrimidin-4-yl)-2-(1-(cyanomethyl)-3-methyl-2,6-dioxo-2,3-dihydro-1H-purin-7(6H)-yl)propanamide]
IC50 (human TRPA1): 5 nM
Duration (0-2 Minutes) Average [1, 4]: 59.4 s
Duration (0-5 Minutes) Average [1, 4]: 182.5 s

CCC(=O)Cn1c(=O)c2c(ncn2[C@@H](C)C(=O)Nc2cccc(-c3cnc(C)c(C(F)(F)F)c3)n2)n(C)c1=O [Compound 135, (S)-2-(3-methyl-2,6-dioxo-1-(2-oxobutyl)-2,3-dihydro-1H-purin-7(6H)-yl)-N-(6′-methyl-5′-(trifluoromethyl)-[2,3′-bipyridin]-6-yl)propanamide]
IC50 (human TRPA1): 4 nM
Duration (0-2 Minutes) Average [1, 2]: 91.1 s
Duration (0-5 Minutes) Average [1, 2]: 153.3 s
Duration (0-2 Minutes) Average [1, 3]: 80.3 s
Duration (0-5 Minutes) Average [1, 3]: 120.3 s
Duration (0-2 Minutes) Average [1, 4]: 74.3 s
Duration (0-5 Minutes) Average [1, 4]: 139.0 s

C[C@@H](C(=O)Nc1cccc(-c2cnc(N3CC4CC4C3)nc2)n1)n1cnc2c1c(=O)n(CC#N)c(=O)n2C (stereo partly drawn) [Compound 149, (2S)—N-(6-(2-(3-azabicyclo[3.1.0]hexan-3-yl)pyrimidin-5-yl)pyridin-2-yl)-2-(1-(cyanomethyl)-3-methyl-2,6-dioxo-2,3-dihydro-1H-purin-7(6H)-yl)propanamide]
IC50 (human TRPA1): 2 nM
Duration (0-2 Minutes) Average [1, 6]: 41.9 s
Duration (0-5 Minutes) Average [1, 6]: 153.0 s

C[C@@H](C(=O)Nc1cncc(-c2cnc(N3CC4CC4C3)nc2)n1)n1cnc2c1c(=O)n(CC#N)c(=O)n2C (stereo partly drawn) [Compound 144]
IC50 (human TRPA1): 6 nM
Duration (0-2 Minutes) Average [1, 4]: 64.6 s
Duration (0-5 Minutes) Average [1, 4]: 181.3 s

Cc1nc(Cn2c(=O)c3c(ncn3CC(=O)Nc3csc(-c4cnc(C(F)(F)F)c(C)c4)n3)n(C)c2=O)no1 [Compound 253, 2-(3-methyl-1-((5-methyl-1,2,4-oxadiazol-3-yl)methyl)-2,6-dioxo-2,3-dihydro-1H-purin-7(6H)-yl)-N-(2-(5-methyl-6-(trifluoromethyl)pyridin-3-yl)thiazol-4-yl)acetamide]
IC50 (human TRPA1): 20 nM
Duration (0-2 Minutes) Average [1, 2]: 79.3 s
Duration (0-5 Minutes) Average [1, 2]: 126.4 s
Duration (0-2 Minutes) Average [1, 3]: 78.8 s
Duration (0-5 Minutes) Average [1, 3]: 119.6 s
Duration (0-2 Minutes) Average [1, 4]: 76.4 s
Duration (0-5 Minutes) Average [1, 4]: 116.0 s

Cc1cc(Cn2c(=O)c3c(ncn3[C@@H](C)C(=O)Nc3cccc(-c4ccc(C(F)(F)F)nc4)n3)n(C)c2=O)no1 [Compound 7, (S)-2-(3-methyl-1-((5-methylisoxazol-3-yl)methyl)-2,6-dioxo-2,3-dihydro-1H-purin-7(6H)-yl)-N-(6′-(trifluoromethyl)-[2,3′-bipyridin]-6-yl)propanamide]
IC50 (human TRPA1): 5 nM
Duration (0-2 Minutes) Average [1, 7]: 82.38 s
Duration (0-5 Minutes) Average [1, 7]: 200.38 s
Duration (0-2 Minutes) Average [1, 8]: 78.25 s
Duration (0-5 Minutes) Average [1, 8]: 173.75 s
Duration (0-2 Minutes) Average [1, 9]: 67.00 s
Duration (0-5 Minutes) Average [1, 9]: 170.50 s

CCOc1ncc(-c2cccc(NC(=O)[C@H](C)n3cnc4c3c(=O)n(Cc3cc(C)on3)c(=O)n4C)n2)cc1C(F)(F)F [Compound 122, (S)—N-(6′-ethoxy-5′-(trifluoromethyl)-[2,3′-bipyridin]-6-yl)-2-(3-methyl-1-((5-methylisoxazol-3-yl)methyl)-2,6-dioxo-2,3-dihydro-1H-purin-7(6H)-yl)propanamide]
IC50 (human TRPA1): 1 nM

Cc1cc(Cn2c(=O)c3c(ncn3CC(=O)Nc3cccc(N4CC5CC5C4)n3)n(C)c2=O)no1 (stereo not drawn) [Compound 212, N-(6-(3-azabicyclo[3.1.0]hexan-3-yl)pyridin-2-yl)-2-(3-methyl-1-((5-methylisoxazol-3-yl)methyl)-2,6-dioxo-2,3-dihydro-1H-purin-7(6H)-yl)acetamide]
IC50 (human TRPA1): 62 nM

Cc1nc(Cn2c(=O)c3c(ncn3[C@@H](C)C(=O)Nc3cccc(-c4cnc(C)c(C(F)(F)F)c4)n3)n(C)c2=O)no1 [Compound 151, (S)-2-(3-methyl-1-((5-methyl-1,2,4-oxadiazol-3-yl)methyl)-2,6-dioxo-2,3-dihydro-1H-purin-7(6H)-yl)-N-(6′-methyl-5′-(trifluoromethyl)-2,3′-bipyridin-6-yl)propanamide]
IC50 (human TRPA1): 16 nM

Cc1noc(Cn2c(=O)c3c(ncn3CC(=O)Nc3csc(-c4cnc(C(F)(F)F)c(C)c4)n3)n(C)c2=O)n1 [Compound 250, 2-(3-methyl-1-((3-methyl-1,2,4-oxadiazol-5-yl)methyl)-2,6-dioxo-2,3-dihydro-1H-purin-7(6H)-yl)-N-(2-(5-methyl-6-(trifluoromethyl)pyridin-3-yl)thiazol-4-yl)acetamide]
IC50 (human TRPA1): 6 nM

CC(=O)Cn1c(=O)c2c(ncn2[C@@H](C)C(=O)Nc2cncc(-c3ccc(C(F)(F)F)nc3)n2)n(C)c1=O [Compound 3, (S)-2-(3-methyl-2,6-dioxo-1-(2-oxopropyl)-2,3-dihydro-1H-purin-7(6H)-yl)-N-(6-(6-(trifluoromethyl)pyridin-3-yl)pyrazin-2-yl)propanamide]
IC50 (human TRPA1): 49 nM

CC(=O)Cn1c(=O)c2c(ncn2CC(=O)Nc2cccc(-c3cnc(N4CCC[C@H]4C(F)(F)F)nc3)n2)n(C)c1=O [Compound 183, (S)-2-(3-methyl-2,6-dioxo-1-(2-oxopropyl)-1,2,3,6-tetrahydropurin-7-yl)-N-(6-(2-(2-(trifluoromethyl)pyrrolidin-1-yl)pyrimidin-5-yl)pyridin-2-yl)acetamide]
IC50 (human TRPA1): 3 nM

— patent US10221177B2 (HYDRA BIOSCIENCES, INC., priority 2014, dated 2019)
